Results on 1 compound are retold here after ChEMBL document CHEMBL4825771 (ACS Med Chem Lett, 2021).

Data set [1] in a line: Metabolic stability in human liver microsomes assessed as half life measured after 60 mins by LC-MS/MS analysis. The format is ADME, Microsome.
The target in data set [2] is 5-hydroxytryptamine receptor 2A (Homo sapiens, UniProt P28223). Nature of the data set: Displacement of [3H]-ketanserin from human 5-HT2A receptor incubated for 90 mins by scintillation counting analysis. In general terms: Displacement assays read how much labelled ligand stays bound in the presence of the test substance.
Sequence of 5-hydroxytryptamine receptor 2A (P28223 whole entry): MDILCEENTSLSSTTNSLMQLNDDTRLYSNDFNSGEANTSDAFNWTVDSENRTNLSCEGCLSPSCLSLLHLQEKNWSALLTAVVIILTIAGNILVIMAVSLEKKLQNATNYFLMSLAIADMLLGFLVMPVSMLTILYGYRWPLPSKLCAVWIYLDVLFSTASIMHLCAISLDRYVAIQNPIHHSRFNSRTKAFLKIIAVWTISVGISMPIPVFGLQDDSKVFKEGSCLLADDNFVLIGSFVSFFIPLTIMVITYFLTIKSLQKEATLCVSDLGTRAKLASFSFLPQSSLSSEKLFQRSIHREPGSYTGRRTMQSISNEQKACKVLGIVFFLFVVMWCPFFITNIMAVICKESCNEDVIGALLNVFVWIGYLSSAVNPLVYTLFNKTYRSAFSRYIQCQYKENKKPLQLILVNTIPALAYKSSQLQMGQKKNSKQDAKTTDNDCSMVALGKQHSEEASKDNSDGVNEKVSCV
A short description of data set [3]: Metabolic stability in human liver microsomes assessed as intrinsic clearance measured after 60 mins by LC-MS/MS analysis. The settings on record: read-out: CLH. The format is ADME, Microsome. On the technique in general: Liver microsomes are vesicles of endoplasmic reticulum, rich in cytochrome P450 enzymes.

The structures appear in SMILES notation.

As for `[2H]C([2H])([2H])N(C([2H])([2H])[2H])C([2H])([2H])C([2H])([2H])c1c[nH]c2cccc(OC(=O)CCCCCCCC/C=C\C/C=C\CCCCC)c12`, the half-life at 2 µM in data set [1] was 2.23 h. Also, the half-maximal effective concentration (EC50) in data set [2] came to 965 nM. In addition, the microsomal CLint in data set [3] was 10.4 µL/min/mg.

As a reminder, the half-life is how long it takes for the measured level to halve. In general, EC50 refers to the concentration giving half of the maximal effect. Read a high EC50 as a less potent agent.
